Experimental data taken from paper PMC5599477, “Comparative stability of Major Facilitator Superfamily transport proteins” (European Biophysics Journal, 2017).

Experiments:
GlpT = target: T1, GlpT (Escherichia coli, UniProt P08194); test: far-UV circular dichroism at […] nm, urea denaturation with ligand; assay type: binding; conditions: 50 uM ligand; 0.01 mg/ml protein; detergent-solubilised; 50 mM Tris-HCl pH 7.4; chemical denaturation onset, not an affinity
T1 construct: 10-His tag (modified pET28a), expressed in E. coli BL21-AI, purified, detergent-solubilised (LacY-WT procedure, Tris-HCl pH 7.4)
T1 sequence (P08194 1-452): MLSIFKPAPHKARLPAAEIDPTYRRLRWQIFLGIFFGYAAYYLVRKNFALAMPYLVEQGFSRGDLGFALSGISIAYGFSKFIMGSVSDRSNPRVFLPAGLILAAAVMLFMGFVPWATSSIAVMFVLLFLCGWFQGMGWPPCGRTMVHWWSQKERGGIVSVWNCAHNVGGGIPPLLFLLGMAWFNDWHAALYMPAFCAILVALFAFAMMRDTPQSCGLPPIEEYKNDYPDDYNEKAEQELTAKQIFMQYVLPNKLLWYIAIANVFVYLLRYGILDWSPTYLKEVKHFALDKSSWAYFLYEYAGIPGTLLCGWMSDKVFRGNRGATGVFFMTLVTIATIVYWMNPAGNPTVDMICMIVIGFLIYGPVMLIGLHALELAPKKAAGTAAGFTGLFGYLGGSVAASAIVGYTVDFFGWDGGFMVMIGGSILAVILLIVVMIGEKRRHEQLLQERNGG

XylE = target: T2, XylE (Escherichia coli, UniProt P0AGF4); test: far-UV circular dichroism at […] nm, GuHCl denaturation with ligand; assay type: binding; conditions: 1 mM ligand; 0.35 mg/ml protein; detergent-solubilised; chemical denaturation onset, not an affinity; D/L form not given
T2 construct: 10-His tag (modified pET28a), expressed in E. coli BL21-AI, purified, detergent-solubilised (LacY-WT procedure)
T2 sequence (P0AGF4 1-491): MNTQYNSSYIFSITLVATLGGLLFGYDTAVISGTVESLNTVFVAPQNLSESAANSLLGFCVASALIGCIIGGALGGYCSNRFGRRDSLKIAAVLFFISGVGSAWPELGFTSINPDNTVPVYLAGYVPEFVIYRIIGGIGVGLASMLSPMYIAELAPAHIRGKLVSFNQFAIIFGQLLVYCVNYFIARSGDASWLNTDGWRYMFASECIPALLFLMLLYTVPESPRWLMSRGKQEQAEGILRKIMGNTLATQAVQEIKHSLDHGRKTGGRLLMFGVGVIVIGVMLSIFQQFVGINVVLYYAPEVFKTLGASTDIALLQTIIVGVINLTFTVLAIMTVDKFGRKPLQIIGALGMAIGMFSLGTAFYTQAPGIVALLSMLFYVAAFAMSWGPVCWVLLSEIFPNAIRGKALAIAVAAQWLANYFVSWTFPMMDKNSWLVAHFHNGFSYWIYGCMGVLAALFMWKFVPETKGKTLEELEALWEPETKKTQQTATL

SMILES | Effect of ligand on stability (GlpT) | Concentration of GuHCl required for unfolding (M) (XylE)
Cc1ncc(COP(=O)(O)O)c(C=O)c1O [pyridoxal-5-phosphate] | > 6 M urea | 
OC1OC[C@@H](O)[C@H](O)[C@H]1O (some centres unmarked) [xylose] |  | > 5 M GuHCl
